# Literature values, collected in US8691864B2, “Agents useful for reducing amyloid precursor protein and treating dementia and methods of use thereof” (priority 2000, dated 2014).
# System: βAPP and Aβ
# Settings: neuronal cells in vitro; Lahiri et al., 1998; cited from earlier work
compound,measurement,value
Nc1c2c(nc3ccccc13)CCCC2 [tacrine],βAPP and Aβ,decrease βAPP and Aβ
